Measurements published in PMC12469358, “Synthesis of novel phenoxyacetohydrazide compounds and evaluation therapeutic potential exhibit as anti-inflammatory and anti-angiogenic” (PLOS One, 2025).
Values after ≈ are worked out from the molar mass of the structure shown. “Also recorded” adds a separate entry of the source. Where two headings read alike, the source gives them in different places. Each block holds one molecule with its values, some of them ahead of it.

What was measured:
[1] = system: human red blood cell (HRBC) membrane; assay: Human red blood cell (HRBC) membrane stabilization assay; assay type: cell-based; conditions: for IC50: Homo sapiens, Erythrocyte
Protocol: The human red blood cell (HRBC) membrane stabilization method was employed to evaluate the anti-inflammatory activity of the compounds, as previously described. For test the in vitro anti-inflammatory activity of synthesized compounds (6e-h), blood samples were collected from healthy volunteers who had not taken NSAIDs for 14 days. The blood was mixed with an equal volume of sterilized Alsever’s solution, centrifuged at 3000 rpm, and the packed cells were washed with isotonic saline (0.9% w/v NaCl). A 10% cell suspension was then prepared using isotonic saline. The test compounds were dissolved in DMSO to prepare solutions at concentrations of 50, 100, 150, 200, and 250 μg/ml. For each concentration, a mixture containing 1 ml of phosphate buffer, 2 ml of hypotonic saline, and 0.5 ml of the HRBC suspension was prepared. The samples were incubated at 37°C for 30 minutes and centrifuged at 3000 rpm for 20 minutes. The hemoglobin content in the supernatant was determined spectrophotometrically at 560 nm. Indomethacin at the same concentrations (50–250 μg/ml) was used as the reference standard, and a control sample was prepared without the test compounds. The percentage hemolysis was calculated by considering the hemolysis in the control group as 100%. The percentage of HRBC membrane stabilization or protection was determined using the following formula:
percent protection=100−((OD of drug treated sample/OD of control) ×100).

[2] = system: alkali burn-induced corneal neovascularization (CNV); assay: Alkali burn-induced corneal neovascularization; assay type: in vivo; conditions: alkali-burnt cornea
Protocol: Corneal neovascularization (CNV) was induced through alkali injury following a standard protocol with minor modifications. Swiss albino rats were first examined to ensure the absence of ophthalmic diseases before the alkali burn procedure. The animals were divided into three groups, each comprising six animals (n = 6 per group):
• Group I: Normal, treated with phosphate-buffered saline (PBS). • Group II: Control group, treated with 1 µg of recombinant VEGF (rVEGF). • Group III: Treated group, receiving rVEGF165 ([…]) and compound 6e (5 µg/ml).
An alkali burn was induced in the right eye of animals in Groups II and III after administering general anesthesia via intraperitoneal injection of ketamine (1 ml/kg) and chlorpromazine (1 ml/kg). A 3-mm diameter piece of Whatman filter paper soaked in […] of 1 mol/L NaOH was applied to the center of the cornea for 30 seconds, followed by irrigation of the treated cornea with 60 ml of normal saline.
Group II animals were subsequently treated with 1 µg of rVEGF applied to the right eye. The extent of CNV was quantified through photographic documentation 48 hours after the alkali burn and rVEGF treatment. […] The inhibitory effect of compound 6e on neovascularization was evaluated through photographic documentation 24 hours after treatment with compound 6e.

[3] = system: carrageenan-induced paw edema; assay: Carrageenan-induced paw edema; assay type: in vivo; conditions: rat, 6e 25 mg/kg, 5 h after carrageenan injection
From the text: Female Swiss albino rats were selected for the study to evaluate the anti-inflammatory effects of compound 6e against carrageenan-induced paw edema. The animals were divided randomly into four groups, with each group consisting of six experimental animals (n = 6): • Group 1: Normal animals (untreated). • Group 2: Control group (saline-treated). • Group 3: Positive control group (indomethacin-treated). • Group 4: Animals treated with compound 6e. Prior to the experiment, animals in Group 2 were administered saline (5 mL/kg), animals in Group 3 received the positive control indomethacin (10 mg/kg), and animals in Group 4 were treated with compound 6e (25 mg/kg). All animals were left undisturbed in their respective cages for 2 hours.

[4] = system: rVEGF165-induced angiogenesis in chick chorioallantoic membrane (CAM); assay: In vivo chorioallantoic membrane (CAM) assay; conditions: for H&E staining: neovascular structures and inflammatory infiltration: Fig 23 legend, H&E staining of in vivo CAM
Protocol: The in vivo CAM assay was performed according to the standard protocol. All the eggs were wiped with 75% alcohol prior to incubation. Then the fertilized eggs were incubated at 37°C with 60% relative humidity. On the 11th day of incubation, all the eggs divided into three treatment groups contain minimum 6 eggs as mentioned below.
• Group I – Normal [PBS (Phosphate buffer saline) (10 mM Sodium phosphate mono basic+ 1.8 mM Sodium phosphate dibasic+140 mM sodium chloride, pH 7.4) alone] • Group II – Control [1µg of rVEGF165 alone] • Group III – 5 µg of 6e + 1 µg of rVEGF165.
A rectangular window was made in the egg shell and Whatman filter paper (3 mm diameter) containing with or without compound 6e (5 µg) was placed on the CAM and the window were sealed using sterile vegetable wrap. Windows were opened after 48h, i.e., on 13th day of incubation, observed by two independent observers and measured for change in the Micro Vessel Density (MVD) in the area beneath the cover slip and photographed using Sony steady shot DSC-W610 camera.

[5] = system: rVEGF165-induced angiogenesis in CAM explants; assay: Ex vivo CAM assay; assay type: in vivo, chick
[6] = system: tissue myeloperoxidase (MPO) activity in carrageenan-treated paws; assay: Tissue myeloperoxidase (MPO) activity assay; assay type: in vivo; conditions: rat, 6e 25 mg/kg, 4 hours after carrageenan
Protocol: Rats were treated either with or without positive control (indomethacin at 10 mg/kg body weight) or compound 6e (25 mg/kg body weight) 2 hours prior to the injection of carrageenan into the right hind paw. The activity of tissue myeloperoxidase (MPO) was assessed 4 hours post-carrageenan injection. Tissue samples were collected and placed in 0.75 ml of 80 mM phosphate-buffered saline (PBS, pH 5.4) containing 0.5% hexadecyltrimethylammonium bromide (HTAB). The samples were homogenized for 45 seconds at 0°C using a homogenizer. The homogenate was transferred into microfuge tubes, and the homogenizer vessel was rinsed with an additional 0.75 ml of HTAB in PBS. The wash was combined with the homogenate to yield a total sample volume of 1.5 ml, which was then centrifuged at 12,000 × g at 4°C for 15 minutes. For the MPO assay, 30 μl of the resulting supernatant was added to 96-well microtiter plates. To each well, 200 μl of a reaction mixture was added, consisting of 100 μl of 80 mM PBS (pH 5.4), 85 μl of 0.22 M PBS (pH 5.4), and 15 μl of 0.017% hydrogen peroxide. […] Enzyme activity was determined spectrophotometrically by measuring absorbance at 630 nm using a plate reader. Results were expressed as MPO activity per milligram of tissue (MOD/mg tissue). […] All samples were measured in six times (n = 6 technical replicates) for statistical accuracy.

[7] = Table 6 series 6a-h, read-out: HRBC membrane stabilization “IC50” Value
[8] = Table 7, 50-250 µg concentration series, comparison with indomethacin, read-out: “IC50”
[9] = Table 7, 50-250 µg concentration series, comparison with indomethacin

Compound: O=C(COc1ccc(Cl)cc1)NNC(=O)C1CN(Cc2ccccc2)CCO1 (centres unmarked) [6a, 4-Benzyl-N’-(2-(4-chlorophenoxy)acetyl)morpholine-2-carbohydrazide]
- IC50 [1, 7]: 311 µg/mL (≈ 770 µM)

Compound: Cc1ccc(OCC(=O)NNC(=O)C2CN(Cc3ccccc3)CCO2)c(C)c1 (centres unmarked) [6d, 4-Benzyl-N’-(2-(2,4-dimethylphenoxy)acetyl)morpholine-2-carbohydrazide]
- IC50 [1, 7]: 199 µg/mL (≈ 501 µM)

Compound: O=C(CCCOc1ccc(F)cc1)NNC(=O)C1CN(Cc2ccccc2)CCO1 (centres unmarked) [6e, 4-Benzyl-N’-(4-(4-fluorophenoxy)butanoyl)morpholine-2-carbohydrazide]
- total vessel length in the rat cornea [2]: diminution in the total vessel length; also recorded: reduction in total vessel length
- corneal neovascularization (CNV) ([2]; rat, 6e 5 µg with rVEGF165 10 µg): significant decrease in CNV
- paw swelling ratio (percent increase of paw volume) [3]: statistically significant reduction in the paw swelling ratio; also recorded: significantly inhibited the ratio of paw swelling
- rVEGF165-induced angiogenic response / neovascularization, in vivo CAM ([4]; 5 µg 6e + 1 µg rVEGF165, 48 h): inhibited this rVEGF165-induced angiogenic response in a dose-dependent manner; also recorded: Marked suppression of neovascularization
- H&E staining: neovascular structures and inflammatory infiltration [4]: minimal inflammatory infiltration and absence of neovessel
- Total vessel length of in vivo CAM ([4]; versus control, n = 6): A significant reduction in vessel length
- VEGF-induced angiogenic response, ex vivo CAM ([5]; co-administration with rVEGF165): Marked suppression of new blood vessel formation; also recorded: effectively inhibited this VEGF-induced angiogenic response in a dose-dependent manner
- Total vessel length of ex-vivo CAM ([5]; rVEGF165-induced increase, n = 6): significantly attenuated
- MPO activity in carrageenan-treated paws [6]: markedly prevented the elevation of MPO activity
- % Inhibition ([1]; 50 µg): 28.88%
- % Inhibition ([1]; 100 µg): 34.13%
- % Inhibition ([1]; 150 µg): 42.02%
- % Inhibition ([1]; 200 µg): 59.99%
- % Inhibition ([1]; 250 µg): 67.86%
- IC50 [1, 7]: 155 µg/mL (≈ 373 µM)
- IC50 [1, 8]: 164 µg/mL (≈ 395 µM)
- “IC50” [1, 9]: 165.988 µg/mL

Compound: CC(C)c1ccc(OCC(=O)NNC(=O)C2CN(Cc3ccccc3)CCO2)c(C(C)C)c1 (centres unmarked) [6f, 4-Benzyl-N’-(2-(2,4-diisopropylphenoxy)acetyl)morpholine-2-carbohydrazide]
- IC50 [1, 7]: 301 µg/mL (≈ 664 µM)

Compound: O=C(CCCOc1cccc([N+](=O)[O-])c1)NNC(=O)C1CN(Cc2ccccc2)CCO1 (centres unmarked) [6h, 4-Benzyl-N’-(4-(3-nitrophenoxy)butanoyl)morpholine-2-carbohydrazide]
- IC50 [1, 7]: 255 µg/mL (≈ 576 µM)

Compound: COc1ccc2c(c1)c(CC(=O)O)c(C)n2C(=O)c1ccc(Cl)cc1 [Indomethacin, reference compound]
- H&E staining: neovascular structures and inflammatory infiltration [4]: Moderate reduction in neovascular structures
- % Inhibition ([1]; 50 µg): 33.10%
- % Inhibition ([1]; 100 µg): 46.11%
- % Inhibition ([1]; 150 µg): 53.99%
- % Inhibition ([1]; 200 µg): 64.98%
- % Inhibition ([1]; 250 µg): 76.94%
- IC50 [1, 8]: 122 µg/mL (≈ 340 µM)
- “IC50” [1, 9]: 122.01 µg/mL

Now from value to molecule:

- IC50 [1, 7]: 222 µg/mL (≈ 495 µM)
Compound: O=C(COc1ccc(Br)cc1)NNC(=O)C1CN(Cc2ccccc2)CCO1 (centres unmarked) [6b, 4-Benzyl-N’-(2-(4-bromophenoxy)acetyl)morpholine-2-carbohydrazide]

- IC50 [1, 7]: 289 µg/mL (≈ 754 µM)
Compound: Cc1ccccc1OCC(=O)NNC(=O)C1CN(Cc2ccccc2)CCO1 (centres unmarked) [6c, 4-Benzyl-N’-(2-(o-tolyloxy)acetyl)morpholine-2-carbohydrazide]

- IC50 [1, 7]: 279 µg/mL (≈ 586 µM)
Compound: O=C(CCCOc1ccc(Br)cc1)NNC(=O)C1CN(Cc2ccccc2)CCO1 (centres unmarked) [6g, 4-Benzyl-N’-(4-(4-bromophenoxy)butanoyl)morpholine-2-carbohydrazide]
